According to patent US7858349B2, “Anti-cancer compounds” (The Regents of the University of Colorado, priority 1999, dated 2010):

How the values were obtained:
SCLC strain SHP-77 = experiment: MTT assay for cell survival, SCLC SHP-77 in vitro; type: cell-based, human; conditions: ED50 for killing of SCLC strain SHP-77 in vitro, 4 days, 0 = no detectable activity, read-out: SCLC SHP-77 IC50
NSCLC strain A-549 = experiment: MTT assay for cell survival, NSCLC A-549 in vitro; type: cell-based, human; conditions: ED50 for killing of NSCLC strain A-549 in vitro, 4 days
PC3 PC cells = experiment: Inhibition of PC3 tumor growth in vivo in nude mice; set-up: species or system athymic nude mice; key to PC3 In vivo % inhib.: an IC50 value of “0” represents no detectable anti-cancer activity for a drug in a given cell line; “Stim.” indicates the observation of a stimulatory activity on the growth of the cancer cell line; conditions: percent inhibition of tumor growth in nude mice; prostate cancer; i.p. 5 mg/kg/every second day or 10 mg/kg/every fourth day
Procedure, shortened: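 Athymic nude mice carrying subcutaneous Matrigel implants (2 million SHP-77, 1 million A549 or 1.5 million PC3 cells) received intraperitoneal compound from day 8, 5 mg/kg every second day or 10 mg/kg every fourth day, 5 mice/group, vehicle controls. Inhibition from caliper volume (3.14×L×W²/6, thrice weekly) and tumor weight at autopsy.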

Row | Structure (SMILES) | IC50 (SCLC strain SHP-77) | IC50 (NSCLC strain A-549) | PC3 In vivo % inhib. (PC3 PC cells)
1 | CC1(C)CC(NC(=O)C(Cc2ccc(-c3ccccc3)cc2)NC(=O)C(c2ccc(Cl)cc2)c2ccc(Cl)cc2)CC(C)(C)N1 (stereo not drawn) [Analog M-1274, Bcpa-Bip-Atmp] | 2.1 µM | 7.3 µM | –
2 | O=C(C=Cc1c(F)c(F)c(F)c(F)c1F)NC(Cc1ccc(I)cc1)C(=O)NC1CN2CCC1CC2 [Analog M-1286, F5c-PIF-(R)-(+)-Aqu] | 4.3 µM | 9 µM | –
3 | O=C(C=Cc1c(F)c(F)c(F)c(F)c1F)NC(Cc1ccc(-c2ccccc2)cc1)C(=O)NC1CN2CCC1CC2 [Analog M-1288, F5c-Bip-(R)-(+)-Aqu] | 4.3 µM | 7.3 µM | –
4 | O=C(C=Cc1c(F)c(F)c(F)c(F)c1F)NC(Cc1ccc(I)cc1)C(=O)NC1CN2CCC1CC2 [Analog M-1290, F5c-PIF-(S)-(−)-Aqu] | – | 14 µM | –
5 | O=C(C=Cc1c(F)c(F)c(F)c(F)c1F)NC(Cc1ccc(-c2ccccc2)cc1)C(=O)NC1CN2CCC1CC2 [Analog M-1292, F5c-Bip-(S)-(−)-Aqu] | – | 9.8 µM | –
6 | O=C(C=Cc1c(F)c(F)c(F)c(F)c1F)NC(Cc1ccc(I)cc1)C(=O)N1CCCN(Cc2ccccc2)CC1 (stereo not drawn) [Analog M-1294, F5c-PIF-Bhp] | – | 22 µM | 44%
7 | O=C(C=Cc1c(F)c(F)c(F)c(F)c1F)NC(Cc1ccc(I)cc1)C(=O)N1CCN(c2ccc(Cl)cc2)CC1 (stereo not drawn) [Analog M-1298, F5c-PIF-Cpp] | – | 21 µM | –
8 | O=C(C=Cc1c(F)c(F)c(F)c(F)c1F)NC(Cc1ccc(I)cc1)C(=O)N1CCN(C(c2ccccc2)c2ccc(Cl)cc2)CC1 (stereo not drawn) [Analog M-1300, F5c-PIF-Cbp] | – | 21 µM | –
9 | O=C(C=Cc1c(F)c(F)c(F)c(F)c1F)NC(Cc1ccc(I)cc1)C(=O)N1CCN(CCc2ccccc2)CC1 (stereo not drawn) [Analog M-1304, F5c-PIF-Pep] | – | 17 µM | –
10 | O=C(C=Cc1c(F)c(F)c(F)c(F)c1F)NC(Cc1ccc(I)cc1)C(=O)N1CCN(CCCc2ccccc2)CC1 (stereo not drawn) [Analog M-1308, F5c-PIF-Ppp] | – | 14 µM | –
11 | O=C(C=Cc1c(F)c(F)c(F)c(F)c1F)NC(Cc1ccc(I)cc1)C(=O)N1CCN(Cc2ccc(Cl)cc2)CC1 (stereo not drawn) [Analog M-1310, F5c-PIF-4-Clbp] | – | 12 µM | Stim.
12 | O=C(C=Cc1c(F)c(F)c(F)c(F)c1F)NC(Cc1ccc(I)cc1)C(=O)NC1CCN(Cc2ccccc2)C1 (stereo not drawn) [Analog M-1312, F5c-PIF-BapS] | – | 13 µM | 33%
13 | O=C(C=Cc1c(F)c(F)c(F)c(F)c1F)NC(Cc1ccc(I)cc1)C(=O)N1CCN(CC2CCCCC2)CC1 (stereo not drawn) [Analog M-1314, F5c-PIF-Chmp] | – | 21 µM | –
14 | C=CCN1CCN(C(=O)C(Cc2ccc(I)cc2)NC(=O)C=Cc2c(F)c(F)c(F)c(F)c2F)CC1 (stereo not drawn) [Analog M-1316, F5c-PIF-Alp] | – | 20 µM | –
15 | C=CCN(CC=C)CCN1CCN(C(=O)C(Cc2ccc(I)cc2)NC(=O)C=Cc2c(F)c(F)c(F)c(F)c2F)CC1 (stereo not drawn) [Analog M-1318, F5c-PIF-Daep] | – | 8.4 µM | –
16 | N#Cc1ccc(N2CCN(C(=O)C(Cc3ccc(I)cc3)NC(=O)C=Cc3c(F)c(F)c(F)c(F)c3F)CC2)cc1 (stereo not drawn) [Analog M-1320, F5c-PIF-4-Cypp] | – | 17 µM | –
17 | O=C(C=Cc1c(F)c(F)c(F)c(F)c1F)NC(Cc1ccc(I)cc1)C(=O)N1CCN(Cc2ccc(F)cc2)CC1 (stereo not drawn) [Analog M-1322, F5c-PIF-Fbp] | – | 13 µM | 46%
18 | O=C(C=Cc1c(F)c(F)c(F)c(F)c1F)NC(Cc1ccc(I)cc1)C(=O)NC1CCN(Cc2ccccc2)C1 (stereo not drawn) [Analog M-1326, F5c-PIF-BapR] | – | 10 µM | 0.6%
19 | CCCCCCCCN1CCN(C(=O)C(Cc2ccc(I)cc2)NC(=O)C=Cc2c(F)c(F)c(F)c(F)c2F)CC1 (stereo not drawn) [Analog M-1330, F5c-PIF-Ocp] | – | 17 µM | 40%
20 | Cc1ccc(CN2CCN(C(=O)C(Cc3ccc(I)cc3)NC(=O)C=Cc3c(F)c(F)c(F)c(F)c3F)CC2)cc1 (stereo not drawn) [Analog M-1332, F5c-PIF-4-Mbp] | – | 7.8 µM | 63%
21 | Cc1cc(C)c(CN2CCN(C(=O)C(Cc3ccc(I)cc3)NC(=O)C=Cc3c(F)c(F)c(F)c(F)c3F)CC2)c(C)c1 (stereo not drawn) [Analog M-1334, F5c-PIF-Tmbp] | – | 19 µM | 50%
22 | COc1ccc2c(c1)c(CC(=O)N[C@@H](Cc1ccc(OCc3c(Cl)cccc3Cl)cc1)C(=O)NCCCN1CCN(C)CC1)c(C)n2C(=O)c1ccc(Cl)cc1 [Analog M-1584, Indo-OC2Y-Amp] | 1.5 µM | – | 32%

Row | Structure (SMILES) | IC50 (SCLC strain SHP-77) | IC50 (NSCLC strain A-549) | PC3 In vivo % inhib. (PC3 PC cells)
23 | COc1ccc2c(c1)c(CC(=O)N[C@H](Cc1ccc(OCc3c(Cl)cccc3Cl)cc1)C(=O)NC1CC(C)(C)NC(C)(C)C1)c(C)n2C(=O)c1ccc(Cl)cc1 [Analog M-1586, Indo-D-OC2Y-Atmp] | 1.7 µM | – | 38%
24 | COc1ccc2c(c1)c(CC(=O)NC(Cc1ccc(OCc3c(Cl)cccc3Cl)cc1)C(=O)NC1CN3CCC1CC3)c(C)n2C(=O)c1ccc(Cl)cc1 [Analog M-1588, Indo-OC2Y-(R)-Aqu] | 3.9 µM | – | 8%
25 | COc1ccc2c(c1)c(CC(=O)NC(Cc1ccc(OCc3c(Cl)cccc3Cl)cc1)C(=O)NC1CN3CCC1CC3)c(C)n2C(=O)c1ccc(Cl)cc1 [Analog M-1590, Indo-OC2Y-(S)-Aqu] | 4.1 µM | – | Stim.
26 | CC1(C)CC(NC(=O)[C@H](Cc2ccc(OCc3c(Cl)cccc3Cl)cc2)NC(=O)c2ccc(N)cc2O)CC(C)(C)N1 [Analog M-1592, Pas-OC2Y-Atmp] | 7.2 µM | – | Stim.
27 | CC1(C)CC(NC(=O)[C@H](Cc2ccc(OCc3c(Cl)cccc3Cl)cc2)NCc2c(F)c(F)c(F)c(F)c2F)CC(C)(C)N1 [Analog M-1594, F5b-OC2Y-Atmp] | 3.1 µM | – | 20%
28 | CC1(C)CC(NC(=O)[C@H](Cc2ccc(OCc3c(Cl)cccc3Cl)cc2)NCC=C(c2ccccc2)c2ccccc2)CC(C)(C)N1 [Analog M-1600, Pcnl-OC2Y-Atmp] | 4.1 µM | – | 44%
29 | CC1(C)CC(NC(=O)[C@H](Cc2ccc(OCc3c(Cl)cccc3Cl)cc2)NC(=O)c2c3ccccc3nc3ccccc23)CC(C)(C)N1 [Analog M-1602, Acrc-OC2Y-Atmp] | 1.6 µM | – | Stim.
30 | CC1(C)CC(NC(=O)[C@H](Cc2ccc(OCc3c(Cl)cccc3Cl)cc2)NCc2cnc3ccccc3c2)CC(C)(C)N1 [Analog M-1604, 3Qum-OC2Y-Atmp] | 7.4 µM | – | Stim.
31 | CC1(C)CC(NC(=O)[C@H](Cc2ccc(OC(=O)OCc3ccccc3Br)cc2)NC(=O)/C=C/c2c(F)c(F)c(F)c(F)c2F)CC(C)(C)N1 [Analog M-1608, F5c-ObrZY-Atmp] | 10 µM | – | 29%
32 | Cc1ncc(CO)c(CN[C@@H](Cc2ccc(OCc3c(Cl)cccc3Cl)cc2)C(=O)NC2CC(C)(C)NC(C)(C)C2)c1O [Analog M-1610, B6-OC2Y-Atmp] | > 60 µM | – | Stim.
33 | Cc1ncc(COP(=O)(O)O)c(CN[C@@H](Cc2ccc(OCc3c(Cl)cccc3Cl)cc2)C(=O)NC2CC(C)(C)NC(C)(C)C2)c1O [Analog M-1612, B6P-OC2Y-Atmp] | > 60 µM | – | Stim.
34 | C=CCN1C(C)CN(C(=O)C(Cc2ccc(OCc3c(Cl)cccc3Cl)cc2)NC(=O)C=Cc2c(F)c(F)c(F)c(F)c2F)CC1C (stereo not drawn) [Analog M-1614, F5c-OC2Y-cDmap] | 2 µM | – | 54%
35 | CC1(C)CC(NC(=O)[C@H](Cc2ccc(OCc3c(Cl)cccc3Cl)cc2)NC(=O)CCP(=O)(O)O)CC(C)(C)N1 [Analog M-1616, 3Php-OC2Y-Atmp] | > 60 µM | – | 18%
36 | CC1(C)CC(NC(=O)[C@H](Cc2ccc(OCc3c(Cl)cccc3Cl)cc2)NC(=O)c2ccc3c(c2)C(=O)c2ccccc2C3=O)CC(C)(C)N1 [Analog M-1618, Aq2c-OC2Y-Atmp] | 2.2 µM | – | 10%
37 | Cc1ncc(CO)c(CNC(=O)[C@H](Cc2ccc(OCc3c(Cl)cccc3Cl)cc2)NC(=O)/C=C/c2c(F)c(F)c(F)c(F)c2F)c1O [Analog M-1622, F5c-OC2Y-Pxa] | 22 µM | – | 58%
38 | O=C(/C=C/c1c(F)c(F)c(F)c(F)c1F)N[C@@H](Cc1ccc(OCc2c(Cl)cccc2Cl)cc1)C(=O)NCc1nc2ccccc2[nH]1 [Analog M-1624, F5c-OC2Y-Ambi] | 50 µM | – | 68%
39 | CC1(C)CC(NC(=O)C(Cc2ccc(OCc3c(Cl)cccc3Cl)cc2)NC(=O)C2CSC(=O)N2)CC(C)(C)N1 (stereo not drawn) [Analog M-1630, Otac-OC2Y-Atmp] | 60 µM | – | 71%
40 | O=C(/C=C/c1c(F)c(F)c(F)c(F)c1F)N[C@@H](Cc1ccc(OCc2c(Cl)cccc2Cl)cc1)C(=O)NCCN1CCOCC1 [Analog M-1632, F5c-OC2Y-Aem] | 7.8 µM | – | 32%
41 | O=C([C@H](Cc1ccc(OCc2c(Cl)cccc2Cl)cc1)NCc1c(F)c(F)c(F)c(F)c1F)N1CCN(C/C=C/c2ccccc2)CC1 [Analog M-1634, F5b-OC2Y-tCip] | > 60 µM | – | Stim.
42 | CC1(C)CC(NC(=O)[C@H](Cc2ccc(OCc3c(Cl)cccc3Cl)cc2)NC(=O)C(C#N)=Cc2ccc(O)cc2)CC(C)(C)N1 [Analog M-1638, Chc-OC2Y-Atmp] | 18 µM | – | 39%
43 | CC1(C)CC(NC(=O)C(Cc2ccc(OCc3c(Cl)cccc3Cl)cc2)NC(=O)C=Cc2ccc(N)cc2)CC(C)(C)N1 (stereo not drawn) [Analog M-1648, Pac-OC2Y-Atmp] | 7.6 µM | – | 28%
44 | CC1(C)CC(NC(=O)[C@H](Cc2ccc(OCc3c(Cl)cccc3Cl)cc2)NC(=O)CC2CC3CCC2C3)CC(C)(C)N1 (stereo partly drawn) [Analog M-1650, Nba-OC2Y-Atmp] | 4.3 µM | – | 40%
